# Experimental data from patent US9006487B2, “Amine-containing lipids and uses thereof” (Massachusetts Institute of Technology, priority 2005, dated 2015).
# Tested on: cos-7 cells
# Test: DNA transfection: luciferase expression relative to Lipofectamine 2000
# Format: cell-based
# Conditions: lipid/DNA 2.5 w/w; 300 ng Luciferase DNA per well; luciferase assay after 48 hours
# How it was run: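 cos-7 cells were transfected with 300 ng/well luciferase DNA complexed with lipid at ratios from 2.5 to 25 w/w. Bright-Glo luminescence was read after 48 hours and converted to ng luciferase by standard curve. Data are percent of the Lipofectamine 2000 control (2.5 w/w).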
row,Compound,Luciferase expression as a percentage of that achieved using Lipofectamine 2000
1,CCCCCCCCCCCCCCCCCCOC(=O)CCN(CCC(=O)OCCCCCCCCCCCCCCCCCC)CC(OC)OC [LH13],0.0%
2,CCCCCCCCCCCCCCCCCCOC(=O)CCN(CCC(=O)OCCCCCCCCCCCCCCCCCC)CC1CCCO1 (stereo not drawn) [LH15],0.0%
3,CCCCCCCCCCCCCCCCCCOC(=O)CCN(CCC(=O)OCCCCCCCCCCCCCCCCCC)CCc1ccc(OC)c(OC)c1 [LH17],0.0%
4,CCCCCCCCCCCCCCCCCCOC(=O)CCN(CCCO)CCC(=O)OCCCCCCCCCCCCCCCCCC [LH20],0.0%
5,CCCCCCCCCCCCCCCCCCOC(=O)CCN(CCC(=O)OCCCCCCCCCCCCCCCCCC)C[C@@H](C)O [LH21],0.0%
6,CCCCCCCCCCCCCCCCCCOC(=O)CCN(CCC(=O)OCCCCCCCCCCCCCCCCCC)C[C@H](C)O [LH22],0.0%
7,CCCCCCCCCCCCNC(=O)CCN(CCC(=O)NCCCCCCCCCCCC)CCN(CCO)CCO [ND86],0.5%
8,CCCCCCCCCCCCNC(=O)CCN(CCCN(CCO)CCO)CCC(=O)NCCCCCCCCCCCC [ND87],0.0%
9,CCCCCCCCCCOC(=O)CC[N+](C)(CCCOC)CCC(=O)OCCCCCCCCCC.[I-] [QB1],0.4%

# Same assay, conditions: lipid/DNA 5 w/w; 300 ng Luciferase DNA per well; luciferase assay after 48 hours
row,Compound,Luciferase expression as a percentage of that achieved using Lipofectamine 2000
1,CCCCCCCCCCCCCCCCCCOC(=O)CCN(CCC(=O)OCCCCCCCCCCCCCCCCCC)CC(OC)OC [LH13],0.0%
2,CCCCCCCCCCCCCCCCCCOC(=O)CCN(CCC(=O)OCCCCCCCCCCCCCCCCCC)CC1CCCO1 (stereo not drawn) [LH15],0.0%
3,CCCCCCCCCCCCCCCCCCOC(=O)CCN(CCC(=O)OCCCCCCCCCCCCCCCCCC)CCc1ccc(OC)c(OC)c1 [LH17],0.0%
4,CCCCCCCCCCCCCCCCCCOC(=O)CCN(CCCO)CCC(=O)OCCCCCCCCCCCCCCCCCC [LH20],0.0%
5,CCCCCCCCCCCCCCCCCCOC(=O)CCN(CCC(=O)OCCCCCCCCCCCCCCCCCC)C[C@@H](C)O [LH21],0.0%
6,CCCCCCCCCCCCCCCCCCOC(=O)CCN(CCC(=O)OCCCCCCCCCCCCCCCCCC)C[C@H](C)O [LH22],0.0%
7,CCCCCCCCCCCCNC(=O)CCN(CCC(=O)NCCCCCCCCCCCC)CCN(CCO)CCO [ND86],0.2%
8,CCCCCCCCCCCCNC(=O)CCN(CCCN(CCO)CCO)CCC(=O)NCCCCCCCCCCCC [ND87],0.0%
9,CCCCCCCCCCOC(=O)CC[N+](C)(CCCOC)CCC(=O)OCCCCCCCCCC.[I-] [QB1],0.3%

# Same assay, conditions: lipid/DNA 10 w/w; 300 ng Luciferase DNA per well; luciferase assay after 48 hours
row,Compound,Luciferase expression as a percentage of that achieved using Lipofectamine 2000
1,CCCCCCCCCCCCCCCCCCOC(=O)CCN(CCC(=O)OCCCCCCCCCCCCCCCCCC)CC(OC)OC [LH13],0.0%
2,CCCCCCCCCCCCCCCCCCOC(=O)CCN(CCC(=O)OCCCCCCCCCCCCCCCCCC)CC1CCCO1 (stereo not drawn) [LH15],0.0%
3,CCCCCCCCCCCCCCCCCCOC(=O)CCN(CCC(=O)OCCCCCCCCCCCCCCCCCC)CCc1ccc(OC)c(OC)c1 [LH17],0.0%
4,CCCCCCCCCCCCCCCCCCOC(=O)CCN(CCCO)CCC(=O)OCCCCCCCCCCCCCCCCCC [LH20],0.0%
5,CCCCCCCCCCCCCCCCCCOC(=O)CCN(CCC(=O)OCCCCCCCCCCCCCCCCCC)C[C@@H](C)O [LH21],0.0%
6,CCCCCCCCCCCCCCCCCCOC(=O)CCN(CCC(=O)OCCCCCCCCCCCCCCCCCC)C[C@H](C)O [LH22],0.0%
7,CCCCCCCCCCCCNC(=O)CCN(CCC(=O)NCCCCCCCCCCCC)CCN(CCO)CCO [ND86],0.0%
8,CCCCCCCCCCCCNC(=O)CCN(CCCN(CCO)CCO)CCC(=O)NCCCCCCCCCCCC [ND87],0.0%
9,CCCCCCCCCCOC(=O)CC[N+](C)(CCCOC)CCC(=O)OCCCCCCCCCC.[I-] [QB1],0.4%

# Same assay, conditions: lipid/DNA 15 w/w; 300 ng Luciferase DNA per well; luciferase assay after 48 hours
row,Compound,Luciferase expression as a percentage of that achieved using Lipofectamine 2000
1,CCCCCCCCCCCCCCCCCCOC(=O)CCN(CCC(=O)OCCCCCCCCCCCCCCCCCC)CC(OC)OC [LH13],0.0%
2,CCCCCCCCCCCCCCCCCCOC(=O)CCN(CCC(=O)OCCCCCCCCCCCCCCCCCC)CC1CCCO1 (stereo not drawn) [LH15],0.0%
3,CCCCCCCCCCCCCCCCCCOC(=O)CCN(CCC(=O)OCCCCCCCCCCCCCCCCCC)CCc1ccc(OC)c(OC)c1 [LH17],0.0%
4,CCCCCCCCCCCCCCCCCCOC(=O)CCN(CCCO)CCC(=O)OCCCCCCCCCCCCCCCCCC [LH20],0.0%
5,CCCCCCCCCCCCCCCCCCOC(=O)CCN(CCC(=O)OCCCCCCCCCCCCCCCCCC)C[C@@H](C)O [LH21],0.0%
6,CCCCCCCCCCCCCCCCCCOC(=O)CCN(CCC(=O)OCCCCCCCCCCCCCCCCCC)C[C@H](C)O [LH22],0.0%
7,CCCCCCCCCCCCNC(=O)CCN(CCC(=O)NCCCCCCCCCCCC)CCN(CCO)CCO [ND86],0.0%
8,CCCCCCCCCCCCNC(=O)CCN(CCCN(CCO)CCO)CCC(=O)NCCCCCCCCCCCC [ND87],0.0%
9,CCCCCCCCCCOC(=O)CC[N+](C)(CCCOC)CCC(=O)OCCCCCCCCCC.[I-] [QB1],0.3%

# Same assay, conditions: lipid/DNA 20 w/w; 300 ng Luciferase DNA per well; luciferase assay after 48 hours
row,Compound,Luciferase expression as a percentage of that achieved using Lipofectamine 2000
1,CCCCCCCCCCCCCCCCCCOC(=O)CCN(CCC(=O)OCCCCCCCCCCCCCCCCCC)CC(OC)OC [LH13],0.0%
2,CCCCCCCCCCCCCCCCCCOC(=O)CCN(CCC(=O)OCCCCCCCCCCCCCCCCCC)CC1CCCO1 (stereo not drawn) [LH15],0.0%
3,CCCCCCCCCCCCCCCCCCOC(=O)CCN(CCC(=O)OCCCCCCCCCCCCCCCCCC)CCc1ccc(OC)c(OC)c1 [LH17],0.0%
4,CCCCCCCCCCCCCCCCCCOC(=O)CCN(CCCO)CCC(=O)OCCCCCCCCCCCCCCCCCC [LH20],0.0%
5,CCCCCCCCCCCCCCCCCCOC(=O)CCN(CCC(=O)OCCCCCCCCCCCCCCCCCC)C[C@@H](C)O [LH21],0.0%
6,CCCCCCCCCCCCCCCCCCOC(=O)CCN(CCC(=O)OCCCCCCCCCCCCCCCCCC)C[C@H](C)O [LH22],0.0%
7,CCCCCCCCCCCCNC(=O)CCN(CCC(=O)NCCCCCCCCCCCC)CCN(CCO)CCO [ND86],0.0%
8,CCCCCCCCCCCCNC(=O)CCN(CCCN(CCO)CCO)CCC(=O)NCCCCCCCCCCCC [ND87],0.0%
9,CCCCCCCCCCOC(=O)CC[N+](C)(CCCOC)CCC(=O)OCCCCCCCCCC.[I-] [QB1],0.4%

# Same assay, conditions: lipid/DNA 25 w/w; 300 ng Luciferase DNA per well; luciferase assay after 48 hours
row,Compound,Luciferase expression as a percentage of that achieved using Lipofectamine 2000
1,CCCCCCCCCCCCCCCCCCOC(=O)CCN(CCC(=O)OCCCCCCCCCCCCCCCCCC)CC(OC)OC [LH13],0.0%
2,CCCCCCCCCCCCCCCCCCOC(=O)CCN(CCC(=O)OCCCCCCCCCCCCCCCCCC)CC1CCCO1 (stereo not drawn) [LH15],0.0%
3,CCCCCCCCCCCCCCCCCCOC(=O)CCN(CCC(=O)OCCCCCCCCCCCCCCCCCC)CCc1ccc(OC)c(OC)c1 [LH17],0.0%
4,CCCCCCCCCCCCCCCCCCOC(=O)CCN(CCCO)CCC(=O)OCCCCCCCCCCCCCCCCCC [LH20],0.0%
5,CCCCCCCCCCCCCCCCCCOC(=O)CCN(CCC(=O)OCCCCCCCCCCCCCCCCCC)C[C@@H](C)O [LH21],0.0%
6,CCCCCCCCCCCCCCCCCCOC(=O)CCN(CCC(=O)OCCCCCCCCCCCCCCCCCC)C[C@H](C)O [LH22],0.0%
7,CCCCCCCCCCCCNC(=O)CCN(CCC(=O)NCCCCCCCCCCCC)CCN(CCO)CCO [ND86],0.0%
8,CCCCCCCCCCCCNC(=O)CCN(CCCN(CCO)CCO)CCC(=O)NCCCCCCCCCCCC [ND87],0.0%
9,CCCCCCCCCCOC(=O)CC[N+](C)(CCCOC)CCC(=O)OCCCCCCCCCC.[I-] [QB1],0.4%
